Results: patent US20210059959A1, “USE OF CANNABINOIDS IN THE TREATMENT OF MENTAL DISORDERS” (GW Pharma Limited, priority 2015, published 2021)

Test system: participants with schizophrenia or related psychotic disorder
Experiment: Scale for the Assessment of Negative Symptoms (SANS), double-blind placebo-controlled study of CBD as adjunctive therapy
Assay type: in vivo, human
Conditions: CBD vs placebo
Procedure: Example 1 below describes the use of a highly purified cannabis extract comprising cannabidiol (CBD) in a human clinical trial. Example 1 describes data produced in a double-blind, randomised, placebo-controlled, parallel group study of highly purified CBD as adjunctive therapy in first line treatment of schizophrenia or related psychotic disorder.
An eight-week, multi-centre, double-blind, randomised, placebo-controlled, parallel group study was conducted with the aim to determine the efficacy, safety and tolerability of highly purified CBD as adjunctive therapy in first line treatment of schizophrenia or related psychotic disorder.
This study evaluated the efficacy of highly purified CBD compared with placebo on the participant's PANSS Total score, ‘P’, ‘N’, ‘G’, SANS and BACS scores.
Changes from baseline in PANSS scores (Total, ‘P’, ‘N’ and ‘G’), SANS and BACS were recorded at the start of the study (baseline) and at the end of treatment (after 6 weeks treatment with CBD or placebo).
For inclusion in the study participants were required to be male or female aged 18 to 65 years, diagnosed with schizophrenia or a related psychotic disorder (such as schizoaffective or schizophreniform disorder) as defined by the Diagnostic and Statistical Manual of Mental Disorders Version 4. Participants must have been treated for a minimum of four-weeks and be on a stable dose of their current antipsychotic medication. […] A PANSS score in excess of 60 infers that the patient has symptoms related to schizophrenia or related disorders.
The participants were randomised to one of two treatment groups which each consisted of 39 participants. Treatment was administered as either 5 ml CBD (100 mg/ml) oral solution to be taken twice daily or 5 ml matched placebo oral solution to be taken twice daily.
Scale for the Assessment of Negative Symptoms (SANS)
SANS assesses five symptom complexes to obtain clinical ratings of negative symptoms in participants with schizophrenia or related psychotic disorder. They are: affective blunting; alogia (impoverished thinking); avolition/apathy; anhedonia/asociality; and disturbance of attention.
Assessments are conducted on a six-point scale (0=not at all to 5=severe). This scale was measured at each assessment visit (Visit 1-4)

[1] = patients on amisulpride, P = 0.8772

## C=C(C)[C@@H]1CCC(C)=C[C@H]1c1c(O)cc(CCCCC)cc1O [CBD, Cannabidiol]
All patients, P = 0.0364
  Change in baseline scores, SANS question 19: Sexual interest and activity: difference: (−0.4)
All patients, P = 0.0605
  Change in baseline scores, SANS sub-scale 4 (anhedonia/asociality): difference: (−1.2)
All patients, P = 0.0610
  Change in baseline scores, SANS question 24: Inattentiveness during mental status testing: difference: (−0.3)
All patients, P = 0.0660
  Change in baseline scores, SANS sub-scale 5 (disturbance of attention): difference: (−0.7)
All patients, P = 0.0773
  Change in baseline scores, SANS question 25: Global rating of attention: difference: (−0.2)
All patients, P = 0.0918
  Change in baseline scores, SANS question 20: Ability to feel closeness and intimacy: difference: (−1.1)
All patients, P = 0.1168
  Change in baseline scores, SANS total score: difference: (−3.5)
All patients, P = 0.1535
  Change in baseline scores, SANS question 18: Recreational interests and activity: difference: (−0.3)
All patients, P = 0.1787
  Change in baseline scores, SANS question 22: Global rating of anhedonia: difference: (−0.2)
All patients, P = 0.2445
  Change in baseline scores, SANS question 23: Social inattentiveness: difference: (−0.2)
All patients, P = 0.8984
  Change in baseline scores, SANS question 21: Relationships with friends and peers: difference: (0.0)
Patients on amisulpride, P = 0.0687
  Change in baseline scores, SANS score: difference: (16.6)
Patients on amisulpride, P = 0.0756
  Change in baseline scores, SANS question 25: Global rating of attention: difference: (1.0)
Patients on amisulpride, P = 0.1971
  Change in baseline scores, SANS question 19: Sexual interest and activity: difference: (−0.8)
Patients on amisulpride, P = 0.3833
  Change in baseline scores, SANS question 18: Recreational interests and activity: difference: (1.0)
Patients on amisulpride, P = 0.4023
  Change in baseline scores, SANS sub-scale 5 (disturbance of attention): difference: (1.3)
Patients on amisulpride, P = 0.4206
  Change in baseline scores, SANS question 23: Social inattentiveness: difference: (0.5)
Patients on amisulpride, P = 0.4357
  Change in baseline scores, SANS sub-scale 4 (anhedonia/asociality): difference: (1.4)
Patients on amisulpride, P = 0.5671
  Change in baseline scores, SANS question 21: Relationships with friends and peers: difference: (0.5)
Patients on amisulpride, P = 0.8060
  Change in baseline scores, SANS question 24: Inattentiveness during mental status testing: difference: (−0.2)
Patients on amisulpride, P = 0.8729
  Change in baseline scores, SANS question 15: Impersistence at work or school: difference: (0.0)
[1]
  Change in baseline scores, SANS question 20: Ability to feel closeness and intimacy: difference: (0.1)
  Change in baseline scores, SANS question 22: Global rating of anhedonia: difference: (0.1)
Patients on aripiprazole, P = 0.0412
  Change in baseline scores, SANS question 25: Global rating of attention: difference: (−0.4)
Patients on aripiprazole, P = 0.1133
  Change in baseline scores, SANS sub-scale 5 (disturbance of attention): difference: (−1.0)
Patients on aripiprazole, P = 0.1740
  Change in baseline scores, SANS question 24: Inattentiveness during mental status testing: difference: (−0.4)
Patients on aripiprazole, P = 0.1966
  Change in baseline scores, SANS question 15: Impersistence at work or school: difference: (−0.5)
Patients on aripiprazole, P = 0.2979
  Change in baseline scores, SANS question 18: Recreational interests and activity: difference: (−0.3)
Patients on aripiprazole, P = 0.3546
  Change in baseline scores, SANS question 23: Social inattentiveness: difference: (−0.2)
Patients on aripiprazole, P = 0.4231
  Change in baseline scores, SANS question 19: Sexual interest and activity: difference: (−0.3)
Patients on aripiprazole, P = 0.7086
  Change in baseline scores, SANS sub-scale 4 (anhedonia/asociality): difference: (−0.5)
Patients on aripiprazole, P = 0.7642
  Change in baseline scores, SANS score: difference: (−1.4)
Patients on aripiprazole, P = 0.8346
  Change in baseline scores, SANS question 21: Relationships with friends and peers: difference: (−0.1)
Patients on aripiprazole, P = 0.8965
  Change in baseline scores, SANS question 20: Ability to feel closeness and intimacy: difference: (0.0)
Patients on aripiprazole, P = 0.9259
  Change in baseline scores, SANS question 22: Global rating of anhedonia: difference: (0.0)
Patients on olanzapine, P = 0.0050
  Change in baseline scores, SANS score: difference: (−14.3)
Patients on olanzapine, P = 0.0069
  Change in baseline scores, SANS question 20: Ability to feel closeness and intimacy: difference: (−0.9)
Patients on olanzapine, P = 0.0071
  Change in baseline scores, SANS sub-scale 4 (anhedonia/asociality): difference: (−3.7)
Patients on olanzapine, P = 0.0242
  Change in baseline scores, SANS question 15: Impersistence at work or school: difference: (−0.9)
Patients on olanzapine, P = 0.0475
  Change in baseline scores, SANS question 22: Global rating of anhedonia: difference: (−0.6)
Patients on olanzapine, P = 0.0689
  Change in baseline scores, SANS question 18: Recreational interests and activity: difference: (−0.8)
Patients on olanzapine, P = 0.0794
  Change in baseline scores, SANS question 19: Sexual interest and activity: difference: (−0.9)
Patients on olanzapine, P = 0.1064
  Change in baseline scores, SANS question 25: Global rating of attention: difference: (−0.6)
Patients on olanzapine, P = 0.3556
  Change in baseline scores, SANS sub-scale 5 (disturbance of attention): difference: (−1.0)
Patients on olanzapine, P = 0.4829
  Change in baseline scores, SANS question 21: Relationships with friends and peers: difference: (−0.2)
Patients on olanzapine, P = 0.5922
  Change in baseline scores, SANS question 24: Inattentiveness during mental status testing: difference: (−0.2)
Patients on olanzapine, P = 0.6757
  Change in baseline scores, SANS question 23: Social inattentiveness: difference: (−0.2)
Patients on other antipsychotics, P = 0.0654
  Change in baseline scores, SANS question 24: Inattentiveness during mental status testing: difference: (−1.6)
Patients on other antipsychotics, P = 0.1763
  Change in baseline scores, SANS question 25: Global rating of attention: difference: (0.8)
Patients on other antipsychotics, P = 0.2601
  Change in baseline scores, SANS question 20: Ability to feel closeness and intimacy: difference: (−0.4)
Patients on other antipsychotics, P = 0.2746
  Change in baseline scores, SANS question 15: Impersistence at work or school: difference: (−10.6)
Patients on other antipsychotics, P = 0.3359
  Change in baseline scores, SANS score: difference: (−8.3)
Patients on other antipsychotics, P = 0.4192
  Change in baseline scores, SANS sub-scale 5 (disturbance of attention): difference: (−1.5)
Patients on other antipsychotics, P = 0.4246
  Change in baseline scores, SANS question 23: Social inattentiveness: difference: (−0.5)
Patients on other antipsychotics, P = 0.5465
  Change in baseline scores, SANS sub-scale 4 (anhedonia/asociality): difference: (−0.8)
Patients on other antipsychotics, P = 0.6373
  Change in baseline scores, SANS question 21: Relationships with friends and peers: difference: (−0.2)
Patients on other antipsychotics, P = 0.6969
  Change in baseline scores, SANS question 22: Global rating of anhedonia: difference: (−0.2)
Patients on other antipsychotics, P = 0.8182
  Change in baseline scores, SANS question 18: Recreational interests and activity: difference: (−0.1)
Patients on other antipsychotics, P = 0.9656
  Change in baseline scores, SANS question 19: Sexual interest and activity: difference: (0.0)
Patients on quetiapine, P = 0.0017
  Change in baseline scores, SANS sub-scale 4 (anhedonia/asociality): difference: (−4.8)
Patients on quetiapine, P = 0.0044
  Change in baseline scores, SANS question 21: Relationships with friends and peers: difference: (−0.7)
Patients on quetiapine, P = 0.0233
  Change in baseline scores, SANS question 18: Recreational interests and activity: difference: (−1.3)
Patients on quetiapine, P = 0.0501
  Change in baseline scores, SANS question 19: Sexual interest and activity: difference: (−1.4)
Patients on quetiapine, P = 0.0862
  Change in baseline scores, SANS question 23: Social inattentiveness: difference: (−0.5)
Patients on quetiapine, P = 0.1043
  Change in baseline scores, SANS question 22: Global rating of anhedonia: difference: (−1.1)
Patients on quetiapine, P = 0.1330
  Change in baseline scores, SANS question 20: Ability to feel closeness and intimacy: difference: (−0.4)
Patients on quetiapine, P = 0.2697
  Change in baseline scores, SANS question 25: Global rating of attention: difference: (−0.4)
Patients on quetiapine, P = 0.2701
  Change in baseline scores, SANS sub-scale 5 (disturbance of attention): difference: (−1.1)
Patients on quetiapine, P = 0.3150
  Change in baseline scores, SANS score: difference: (−5.4)
Patients on quetiapine, P = 0.4421
  Change in baseline scores, SANS question 24: Inattentiveness during mental status testing: difference: (−0.6)
Patients on quetiapine, P = 0.6640
  Change in baseline scores, SANS question 15: Impersistence at work or school: difference: (5.1)
Patients on risperidone, P = 0.0791
  Change in baseline scores, SANS question 21: Relationships with friends and peers: difference: (0.5)
Patients on risperidone, P = 0.2800
  Change in baseline scores, SANS sub-scale 4 (anhedonia/asociality): difference: (1.2)
Patients on risperidone, P = 0.2955
  Change in baseline scores, SANS score: difference: (3.1)
Patients on risperidone, P = 0.3302
  Change in baseline scores, SANS sub-scale 5 (disturbance of attention): difference: (0.7)
Patients on risperidone, P = 0.3389
  Change in baseline scores, SANS question 25: Global rating of attention: difference: (0.2)
Patients on risperidone, P = 0.4231
  Change in baseline scores, SANS question 24: Inattentiveness during mental status testing: difference: (0.3)
Patients on risperidone, P = 0.4560
  Change in baseline scores, SANS question 18: Recreational interests and activity: difference: (−0.3)
Patients on risperidone, P = 0.5207
  Change in baseline scores, SANS question 23: Social inattentiveness: difference: (0.2)
Patients on risperidone, P = 0.6285
  Change in baseline scores, SANS question 15: Impersistence at work or school: difference: (0.1)
Patients on risperidone, P = 0.6889
  Change in baseline scores, SANS question 19: Sexual interest and activity: difference: (0.1)
Patients on risperidone, P = 0.8648
  Change in baseline scores, SANS question 20: Ability to feel closeness and intimacy: difference: (0.0)
Patients on risperidone, P = 0.9940
  Change in baseline scores, SANS question 22: Global rating of anhedonia: difference: (0.0)
